Columns and labels:
[1] = test system: CLDN-18.2+ NUG-C4 transfectants; experiment: Ex vivo ADCC assay with plasma of dosed mice; assay type: cell-based, human; settings: 1% plasma sampled 24 hours post 5th IV dosing of 1-30 μg RNA composition, 48 hours, E:T 30:1
Procedure: (§1) Plasma of mice dosed with five repetitive injections of either 1 μg (˜0.04 mg/kg), 3 μg (˜0.10 mg/kg), 10 μg (˜0.40 mg/kg) and 30 μg (˜1.20 mg/kg) RB_RMAB01 or 80 μg (˜3.20 mg/kg) of IMAB362 was sampled 24 hours post 5th injection and directed to luciferase-based ex vivo ADCC assays. Plasma of untreated mice spiked with IMAB362 served as assay reference. […] (Panel A) RiboMab01 mediated ADCC of NUG-C4 cells after 48 hours incubation with 1% of plasma is shown. […] Error bars are standard errors of the mean (n=3).
(§2) Plasma of untreated mice spiked with IMAB362 served as assay reference.

[2] = cynomolgus monkey, in vivo
Procedure: Furthermore, immunotoxicity in vivo was assessed as part of the repeated-dose toxicity study in mice and a pharmacokinetic study in cynomolgus monkey. All studies were designed in accordance with the ICH S8 guideline (Immunotoxicity studies for human pharmaceuticals).

MDA-MB-231 cells [3] = experiment: Ex vivo ADCC assay with serum of dosed non-human primates, target-negative control cells; assay type: cell-based
Procedure: (§3) Non-Human Primates (NHP) received three repetitive doses of 0.1, 0.4 or 1.6 mg/kg RB_RMAB01 once weekly. RiboMab01-containing serum of all monkeys sampled 24 hours (black bars) and 168 hours (white bars) post 1st injection was directed to luciferase-based ex vivo ADCC assays. […] Human PBMCs from two different healthy donors (24 h, donor 1, 168 h, donor 2) served as effector cells. (Panel A) RiboMab01-mediated ADCC of NUG-C4 cells after 48 hours incubation is shown. (Panel B) Unspecific lysis on target-negative MDA-MB-231 cells is shown. Error bars are standard error of the mean (n=3). (Panel C) Serum of NHP No. 14 (1.6 mg/kg RB_RMAB01, RiboMab01 serum concentration 232 μg/mL) collected 48 hours after the 3rd dosing was used for a luciferase-based ex vivo ADCC assays. […] Human PBMCs of a healthy donor served as effector cells. […] Incubation time was 48 hours. Error bars are standard errors of the mean (n=3).
(§4) ADCC assays were performed as described in Example 2. […] Purified IMAB362 served as assay reference protein.

[4] = test system: CLDN-18.2+ NUG-C4 transfectants; experiment: Ex vivo ADCC assay with serum of dosed non-human primates; assay type: cell-based; settings: for ADCC target cell lysis: serum 24 hours and 168 hours post IV dosing of 0.1, 0.4, 1.6 mg/kg
Procedure: as §3, §4

MDA-MB-231 cells [5] = experiment: Ex vivo ADCC assay with plasma of dosed mice, target-negative control cells; assay type: cell-based, human; settings: mouse plasma
Procedure: as §1, §2

CLDN-18.2-targeting RiboMab: CLDN-18.2-targeting IgG antibody (IMAB362 delivered as ribonucleic acid) expressed from mRNAs encoding heavy and light chain
ADCC target cell lysis [1]: high and dose-dependent target cell lysis | ADCC target cell lysis ([1]; listed as RiboMab01): specific tumor cell lysis | systemic side effects [2]: no systemic side effects such as diarrhea were observed | unspecific lysis on control cells (MDA-MB-231 cells [3]; FIG. 5 Panel C dilution row): weak unspecific lysis | unspecific lysis on target-negative cells (MDA-MB-231 cells [3]; NHP serum 24 h and 168 h post dosing): Low effector, donor-dependent unspecific lysis | ADCC target cell lysis [4]: high and dose-dependent target cell lysis | ADCC target cell lysis ([4]; listed as RiboMab01): dose-dependent ADCC | EC50 ([4]; serum of monkey No. 14 (1.6 mg/kg) 48 hours after 3rd dosing or recombinant reference protein, 48 hours incubation): 0.066 nM | ADCC EC50 ([4]; serum of monkey No. 14, 48 hours after 3rd injection, 10-point dilution row): 0.01 µg/mL | unspecific lysis on target-negative cells (MDA-MB-231 cells [5]): No unspecific lysis

— patent US20240043527A1 (BioNTech SE, priority 2020, published 2024)
